Test results: patent US7414107B2, “Pharmacologically active peptide conjugates having a reduced tendency towards enzymatic hydrolysis” (priority 1998, dated 2008)

What was measured:
osteoblast = experiment: Osteoblast retraction assay; assay type: cell-based, mice; conditions: for Retraction assay % Retracted cells: 10 nM, 1 h, mouse calvaria osteoblasts; for activity relative to the mother compound hPTH(1-34): Osteoblast retraction assay
Method: Retraction assays were performed with osteoblast prepared from calvaria of 1-day old mice according to published protocols (Miller et al., 1976, Science 192:1340-1343). In brief, osteoblasts were seeded in serum-free minimal essential medium-α (αMEM) at a density of 3000 cells per cm^2 into 96-well tissue culture plates coated with 50 μg/ml of type I collagen in phosphate-buffered saline containing 0.1% bovine serum albumin (PBS). One day after plating, PTH compounds were added to a final concentration of 10 nM and incubation was carried out for 1 h. Cells were then fixed and stained with toluidine blue, and the number of retracted cells was counted by visual inspection.

leucine aminopeptidase = target: T1, leucine aminopeptidase (Sus scrofa, UniProt P28839); experiment: Hydrolysis kinetics in leucine aminopeptidase solution; assay type: in vitro ADME, porcine; conditions: 50 mM phosphate buffer pH 7.4, 37° C., leucine aminopeptidase 25 U/ml; for half-life: pig
T1 construct: purchased Sigma, UK type III-CP (catalogue number not given); host or cells: porcine kidney
T1 sequence (P28839 1-519): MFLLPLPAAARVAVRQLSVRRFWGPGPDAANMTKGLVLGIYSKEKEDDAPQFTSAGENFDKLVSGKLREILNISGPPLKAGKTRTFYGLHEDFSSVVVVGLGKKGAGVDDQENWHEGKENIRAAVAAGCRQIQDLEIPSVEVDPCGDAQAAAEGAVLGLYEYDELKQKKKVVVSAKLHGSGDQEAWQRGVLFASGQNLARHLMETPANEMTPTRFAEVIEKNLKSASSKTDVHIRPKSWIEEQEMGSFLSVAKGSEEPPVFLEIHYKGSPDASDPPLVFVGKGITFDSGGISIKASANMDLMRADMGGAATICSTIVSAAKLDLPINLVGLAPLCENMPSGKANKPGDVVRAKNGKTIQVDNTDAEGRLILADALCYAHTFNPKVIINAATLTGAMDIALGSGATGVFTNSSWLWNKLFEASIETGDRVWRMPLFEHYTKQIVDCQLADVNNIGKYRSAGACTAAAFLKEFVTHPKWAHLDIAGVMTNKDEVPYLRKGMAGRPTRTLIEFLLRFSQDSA
Method: (§1) Carboxypeptidase A (EC 3.4.17.1) type I from bovine pancreas, leucine aminopeptidase (EC 3.4.11.1) type III-CP from porcine kidney, α-chymotrypsin (EC […]) from bovine pancreas, and pepsin A (EC 3.4.23.1) from porcine stomach mucosa […] were obtained from Sigma, UK.
(§2) Gradient HPLC analysis of samples from in vitro kinetic measurements performed as described below was performed using a Hewlett Packard HP 1100 HPLC system consisting of a HP 1100 Binary Pump, a HPI 100 Autosampler, a HPI 100 Column Thermostat and a HP 1100 Variable Wavelength Detector. A Merck LiChroCART column (125×4 mm I.D.) and a LiChroCART precolumn (4×4 mm I.D.) packed with Lichrospher RP-18 (5 .μum particles) was used. The column was kept at 25° C. or 75° C. and the column effluent was measured by UV detection at 215 run. Separation of the peptide conjugates or the native peptides from degradation products and constituents of the reaction solutions was accomplished using gradient elution of the column with mixtures of mobile phase A (0.1 vol % TFA in water) and mobile phase B (0.085 vol % TFA in acetonitrile) at a flow rate of 1 ml/min.
(§3) The degradation of the peptide conjugate and the corresponding native peptide were studied at 37° C. in a 50 mM phosphate buffer solution at pH 7.4 containing leucine arninopeptidase (25 U/ml) or carboxypeptidase A (1 or 25 U/ml). Experiments were initiated by addition of an aliquot (100 μl) of a stock solution (1 mg/ml) of the peptide conjugate or the native peptide to 900 μl preheated enzyme solution giving a final concentration of ˜0.1 mg/ml (10^−5-10^−4M) of the peptide conjugate or the native peptide. The peptide/enzyme solution was kept at 37° C. using a SHT200D block heater from Stuart Scientific. At appropriate time intervals, samples of 100 μl were withdrawn from the peptide/enzyme solution, mixed thoroughly with 20 μl 25% TFA in acetonitrile in order to stop the enzymatic degradation process and analysed by HPLC as described above. Half-lives (t1/2) for the peptide conjugate and the corresponding native peptide in the enzyme solutions were calculated from plots of the natural logarithm to the concentration of the residual peptide (HPLC peak heights) against time using the formula t/2=1/kobs×ln(2), where kobs is the apparent first-order rate constant for the observed degradation.

carboxypeptidase A = target: T2, carboxypeptidase A (Bos taurus, UniProt P00730); experiment: Hydrolysis kinetics in carboxypeptidase A solution; assay type: in vitro ADME, bovine; conditions: 50 mM phosphate buffer pH 7.4, 37° C., carboxypeptidase A 1 U/ml
T2 construct: purchased Sigma, UK type I (catalogue number not given); host or cells: bovine pancreas
T2 sequence (P00730 111-419): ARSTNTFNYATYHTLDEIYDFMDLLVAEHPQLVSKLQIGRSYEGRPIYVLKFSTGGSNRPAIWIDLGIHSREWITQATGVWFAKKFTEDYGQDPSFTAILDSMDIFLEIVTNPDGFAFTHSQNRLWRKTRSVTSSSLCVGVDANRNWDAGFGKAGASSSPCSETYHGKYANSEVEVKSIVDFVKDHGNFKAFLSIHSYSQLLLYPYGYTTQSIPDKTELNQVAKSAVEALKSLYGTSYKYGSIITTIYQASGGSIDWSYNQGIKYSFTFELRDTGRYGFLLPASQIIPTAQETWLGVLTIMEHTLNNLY
Method: as §1, §2, §3

PTH (1-34)-antibody = conditions: EIAS(h)-6101 from Peninsula Laboratories; cited from earlier work

## CC[C@H](C)[C@H](NC(=O)[C@H](CCC(=O)O)NC(=O)[C@H](CO)NC(=O)[C@@H](NC(=O)[C@@H](N)CO)C(C)C)C(=O)N[C@@H](CCC(N)=O)C(=O)N[C@@H](CC(C)C)C(=O)N[C@@H](CCSC)C(=O)N[C@@H](Cc1c[nH]cn1)C(=O)N[C@@H](CC(N)=O)C(=O)N[C@@H](CC(C)C)C(=O)NCC(=O)N[C@@H](CCCCN)C(=O)N[C@@H](Cc1c[nH]cn1)C(=O)N[C@@H](CC(C)C)C(=O)N[C@@H](CC(N)=O)C(=O)N[C@@H](CO)C(=O)N[C@@H](CCSC)C(=O)N[C@@H](CCC(=O)O)C(=O)N[C@@H](CCCNC(=N)N)C(=O)N[C@H](C(=O)N[C@@H](CCC(=O)O)C(=O)N[C@@H](Cc1c[nH]c2ccccc12)C(=O)N[C@@H](CC(C)C)C(=O)N[C@@H](CCCNC(=N)N)C(=O)N[C@@H](CCCCN)C(=O)N[C@@H](CCCCN)C(=O)N[C@@H](CC(C)C)C(=O)N[C@@H](CCC(N)=O)C(=O)N[C@@H](CC(=O)O)C(=O)N[C@H](C(=O)N[C@@H](Cc1c[nH]cn1)C(=O)N[C@@H](CC(N)=O)C(=O)N[C@@H](Cc1ccccc1)C(=O)N[C@@H](CCCCN)C(=O)N[C@@H](CCCCN)C(=O)N[C@@H](CCCCN)C(=O)N[C@@H](CCCCN)C(=O)N[C@@H](CCCCN)C(=O)N[C@@H](CCCCN)C(=O)O)C(C)C)C(C)C [PTH(1-34)(Human)-(Lys)6-OH, H-Ser-Val-Ser-Glu-Ile-Gln-Leu-Met-His-Asn-Leu-Gly-Lys -His-Leu-Asn-Ser-Met-Glu-Arg-Val-Glu-Trp-Leu-Arg-Lys-Lys-Leu-Gln-Asp-Val -His-Asn-Phe-Lys6-OH]
osteoblast
  Retraction assay % Retracted cells: 37.4%
  activity relative to the mother compound hPTH(1-34): 55%
Leucine aminopeptidase
  pseudo first-order rate constant for the degradation: 0.0012 min⁻¹
  half-life: 9.63 h
Carboxypeptidase A
  half-life: 0.783 h
  pseudo first-order rate constant for the degradation: 0.015 min⁻¹

## ratPTH(1-34): rat PTH fragment listed in the EIA kit specificity (AVSEIQLMHNLGKHLASVERMQWLRKKLQDVHNF; Parathyroid hormone; UniProt P04089 32-65, looked up, fragment)
PTH (1-34)-antibody
  Specificity of the assay: 0%

## hPTH(1-44): human PTH fragment listed in the EIA kit specificity (SVSEIQLMHNLGKHLNSMERVEWLRKKLQDVHNFVALGAPLAPR; Parathyroid hormone; UniProt P01270 32-75, looked up, fragment)
PTH (1-34)-antibody
  Specificity of the assay: 0%

## CC[C@H](C)[C@H](NC(=O)[C@H](CCC(=O)O)NC(=O)[C@H](CO)NC(=O)[C@@H](NC(=O)[C@H](CO)NC(=O)[C@H](CCCCN)NC(=O)[C@H](CCCCN)NC(=O)[C@H](CCCCN)NC(=O)[C@H](CCCCN)NC(=O)[C@H](CCCCN)NC(=O)[C@@H](N)CCCCN)C(C)C)C(=O)N[C@@H](CCC(N)=O)C(=O)N[C@@H](CC(C)C)C(=O)N[C@@H](CCSC)C(=O)N[C@@H](Cc1c[nH]cn1)C(=O)N[C@@H](CC(N)=O)C(=O)N[C@@H](CC(C)C)C(=O)NCC(=O)N[C@@H](CCCCN)C(=O)N[C@@H](Cc1c[nH]cn1)C(=O)N[C@@H](CC(C)C)C(=O)N[C@@H](CC(N)=O)C(=O)N[C@@H](CO)C(=O)N[C@@H](CCSC)C(=O)N[C@@H](CCC(=O)O)C(=O)N[C@@H](CCCNC(=N)N)C(=O)N[C@H](C(=O)N[C@@H](CCC(=O)O)C(=O)N[C@@H](Cc1c[nH]c2ccccc12)C(=O)N[C@@H](CC(C)C)C(=O)N[C@@H](CCCNC(=N)N)C(=O)N[C@@H](CCCCN)C(=O)N[C@@H](CCCCN)C(=O)N[C@@H](CC(C)C)C(=O)N[C@@H](CCC(N)=O)C(=O)N[C@@H](CC(=O)O)C(=O)N[C@H](C(=O)N[C@@H](Cc1c[nH]cn1)C(=O)N[C@@H](CC(N)=O)C(=O)N[C@@H](Cc1ccccc1)C(=O)O)C(C)C)C(C)C [(Lys)6-PTH(1-34)(Human)-OH, H-(Lys)6-(-Ser-Val-Ser-Glu-Ile-Gln-Leu-Met-His-Asn-Leu -Gly-Lys-His-Leu-Asn-Ser-Met-Glu-Arg-Val-Glu-Trp-Leu-Arg-Lys-Lys-Leu-Gln -Asp-Val-His-Asn-Phe-OH]
osteoblast
  Retraction assay % Retracted cells: 34.7%
  activity relative to the mother compound hPTH(1-34): 49%
Leucine aminopeptidase
  pseudo first-order rate constant for the degradation: 0.0035 min⁻¹
  half-life: 3.3 h
